In patent US20040033251A1, “Active agent delivery system including a polyurethane, medical device, and method” (Medtronic, Inc., priority 2002, published 2004):

How the values were obtained:
[1] = Dissolution of coumarin from PL75D/TP blend cap-coated shims in PBS; format: physicochemical; settings: PL75D/TP cap coats over TL/coumarin base coat, 37° C., FIG. 8
Method: PL75D was dried at 70° C. at reduced pressure overnight. The dried pellets were compressed between two plates that were pre-heated to 230° C. and maintained for about 5 minutes. After the sample was cooled down to room temperature, it was placed in a vial filled with THF and stirred until dissolved (by visual observation). TP and TL were directly dissolved in THF by stirring the mixtures at room temperature. Coumarin was also dissolved in THF. The concentrations of all the solutions were about 1 wt-%. TL solution and coumarin solution were mixed at a weigh ratio of 1:1. This mixture is the base coating solution of a reservoir system. TP solution and PL75D solution were mixed at various weight ratios to make five different mixtures with the weight ratios of TP to PL75D being 100:0, 75:25, 50:50, 25:75, and 0:100. […]
Dissolution of coumarin from the cap-coated shims was conducted by placing the coated shims in glass vials that contained phosphate buffered saline solution (PBS, potassium phosphate monobasic (NF tested), 0.144 grams per liter (g/L), sodium chloride (USP tested), 9 g/L, and sodium phosphate dibasic (USP tested) 0.795 g/L, pH=7.0 to 7.2 at 37° C., purchased from HyClone, Logan, Utah). […] The concentration of coumarin in all these solutions was measured with a liquid chromatography (HP 1090) that was equipped with a UV detector. […]

[2] = Merck Index 13 edit.; cited from earlier work

In the case of `O=c1ccc2ccccc2o1` [Coumarin], the “Release rate versus cap coat composition” value [1] is given as “release much faster from a 100% PL75D coated shim than that from 100% TP coated shim” and the “Volume of cold water in which one gram dissolves” value [2] is given as 400 mL.
